Drawing on PubChem BioAssay AID256 (DTP/NCI, 2004), this text covers T/C for 13 molecules.

The subject of this experiment is CD2F1 mice, L1210 leukemia ip, survival T/C. Kind of experiment: NCI In Vivo Anticancer Drug Screen. Data for tumor model L1210 Leukemia (intraperitoneal) in CD2F1 (CDF1) mice. As to conditions: higher = longer survival. The method in brief:
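Vehicle-treated tumor-bearing mice served as controls (C) for compound-treated mice (T). Reported figure is T divided by C.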

Where [1] appears, read: endpoint: mean survival time, dose: 25.0 mg/kg/injection, schedule: Q04DX003 (ip), vehicle: Klucel (hydroxypropylcellulose) (HPC).
Setting [2] is: endpoint: mean survival time, dose: 50.0 mg/kg/injection, schedule: Q04DX003 (ip), vehicle: Klucel (hydroxypropylcellulose) (HPC).
[3] abbreviates: endpoint: mean survival time, dose: 100.0 mg/kg/injection, schedule: Q04DX003 (ip), vehicle: saline with Tween-80.
Where [4] appears, read: endpoint: mean survival time, dose: 200.0 mg/kg/injection, schedule: Q04DX003 (ip), vehicle: saline with Tween-80.
Where [5] appears, read: endpoint: mean survival time, dose: 400.0 mg/kg/injection, schedule: Q04DX003 (ip), vehicle: saline with Tween-80.
[6] abbreviates: endpoint: mean survival time, dose: 100.0 mg/kg/injection, schedule: Q01DX001 (ip), vehicle: saline with Tween-80.
Setting [7] is: endpoint: mean survival time, dose: 200.0 mg/kg/injection, schedule: Q01DX001 (ip), vehicle: saline with Tween-80.
[8] abbreviates: endpoint: mean survival time, dose: 400.0 mg/kg/injection, schedule: Q01DX001 (ip), vehicle: saline with Tween-80.

“And” between values parts separate entries of the source, which are not always exact repeats. Equal entries are not always repeated. Toxic doses and inconclusive results are not listed.

Consider `Nc1ncnc2c1ncn2C1OC(COP(=O)(O)O)C(O)C1O` (configuration not stated), for which the T/C is, setting by setting: (endpoint: mean survival time, dose: 9.4 mg/kg/injection, schedule: Q03HX016 (ip), vehicle: water) 106 % of control; (endpoint: mean survival time, dose: 9.4 mg/kg/injection, schedule: Q03HX024 (ip), vehicle: water) 109 % of control; (endpoint: mean survival time, dose: 12.5 mg/kg/injection, schedule: Q01DX009 (ip), vehicle: saline) 98 % of control; (endpoint: mean survival time, dose: 12.5 mg/kg/injection, schedule: Q01DX009 (ip), vehicle: water) 103 % of control; (endpoint: mean survival time, dose: 18.8 mg/kg/injection, schedule: Q03HX016 (ip), vehicle: water) 110 % of control; (endpoint: mean survival time, dose: 18.8 mg/kg/injection, schedule: Q03HX024 (ip), vehicle: water) 107 % of control. Further, the T/C is, setting by setting: (endpoint: mean survival time, dose: 25.0 mg/kg/injection, schedule: Q01DX009 (ip), vehicle: saline) 104 % of control; (endpoint: mean survival time, dose: 25.0 mg/kg/injection, schedule: Q01DX009 (ip), vehicle: water) 107 % of control; (endpoint: mean survival time, dose: 27.5 mg/kg/injection, schedule: Q03DX024 (ip), vehicle: saline) 107 % of control; (endpoint: mean survival time, dose: 27.5 mg/kg/injection, schedule: Q04DX003 (ip), vehicle: saline) 105 % of control; (endpoint: mean survival time, dose: 36.7 mg/kg/injection, schedule: Q03DX024 (ip), vehicle: saline) 115 % of control; (endpoint: mean survival time, dose: 36.7 mg/kg/injection, schedule: Q04DX003 (ip), vehicle: saline) 103 % of control. The T/C by setting is: (endpoint: mean survival time, dose: 37.5 mg/kg/injection, schedule: Q03HX016 (ip), vehicle: water) 114 % of control; (endpoint: mean survival time, dose: 37.5 mg/kg/injection, schedule: Q03HX024 (ip), vehicle: water) 113 % of control; (endpoint: mean survival time, dose: 50.0 mg/kg/injection, schedule: Q01DX009 (ip), vehicle: saline) 100 % of control; (endpoint: mean survival time, dose: 50.0 mg/kg/injection, schedule: Q01DX009 (ip), vehicle: water) 109 % of control; (endpoint: mean survival time, dose: 55.0 mg/kg/injection, schedule: Q03DX024 (ip), vehicle: saline) 112 % of control; (endpoint: mean survival time, dose: 55.0 mg/kg/injection, schedule: Q04DX003 (ip), vehicle: saline) 104 % of control. In addition, the T/C is 118 % of control (endpoint: mean survival time, dose: 73.3 mg/kg/injection, schedule: Q03DX024 (ip), vehicle: saline); 106 % of control (endpoint: mean survival time, dose: 73.3 mg/kg/injection, schedule: Q04DX003 (ip), vehicle: saline); 115 % of control (endpoint: mean survival time, dose: 75.0 mg/kg/injection, schedule: Q03HX016 (ip), vehicle: water); 118 % of control (endpoint: mean survival time, dose: 75.0 mg/kg/injection, schedule: Q03HX024 (ip), vehicle: water); 102 % of control (endpoint: mean survival time, dose: 100.0 mg/kg/injection, schedule: Q01DX009 (ip), vehicle: saline); 115 % of control (endpoint: mean survival time, dose: 100.0 mg/kg/injection, schedule: Q01DX009 (ip), vehicle: water). The T/C reads like this: (endpoint: mean survival time, dose: 200.0 mg/kg/injection, schedule: Q01DX009 (ip), vehicle: saline) 102 % of control and 108 % of control; (endpoint: mean survival time, dose: 200.0 mg/kg/injection, schedule: Q01DX009 (ip), vehicle: water) 119 % of control; (endpoint: mean survival time, dose: 315.0 mg/kg/injection, schedule: Q01DX009 (ip), vehicle: saline) 106 % of control; (endpoint: mean survival time, dose: 375.0 mg/kg/injection, schedule: Q03HX024 (ip), vehicle: saline) 156 % of control; (endpoint: mean survival time, dose: 400.0 mg/kg/injection, schedule: Q01DX009 (ip), vehicle: saline) 114 % of control and 102 % of control; (endpoint: mean survival time, dose: 470.0 mg/kg/injection, schedule: Q01DX009 (ip), vehicle: saline) 110 % of control. Also, the T/C is, setting by setting: (endpoint: mean survival time, dose: 700.0 mg/kg/injection, schedule: Q01DX009 (ip), vehicle: saline) 112 % of control; (endpoint: mean survival time, dose: 800.0 mg/kg/injection, schedule: Q01DX009 (ip), vehicle: saline) 122 % of control; (endpoint: median survival time, dose: 20.0 mg/kg/injection, schedule: Q01DX009 (ip), vehicle: water) 102 % of control; (endpoint: median survival time, dose: 40.0 mg/kg/injection, schedule: Q01DX009 (ip), vehicle: water) 105 % of control and 107 % of control; (endpoint: median survival time, dose: 80.0 mg/kg/injection, schedule: Q01DX009 (ip), vehicle: water) 124 % of control and 108 % of control; (endpoint: median survival time, dose: 160.0 mg/kg/injection, schedule: Q01DX009 (ip), vehicle: water) 117 % of control.
For `CC(=N\O)/C(C)=N/O.CC(=N\O)/C(C)=N/O.O.[CH3-].[Co]`, the T/C under setting [1] is 95 % of control and the T/C under setting [2] was 95 % of control.
As to `CCCCCCCCC(C(O)c1ccccc1)C(O)(C(F)(F)F)C(F)(F)F` (configuration not stated), the T/C was 98 % of control under setting [3], 102 % of control under setting [4] and 104 % of control under setting [5].
Regarding `[Cl][Pt][Cl].[NH-]CC[NH-].[NH-]CC[NH-]`, the T/C (endpoint: mean survival time, dose: 12.5 mg/kg/injection, schedule: Q04DX003 (ip), vehicle: water) is 92 % of control and 100 % of control and 95 % of control; the T/C (endpoint: mean survival time, dose: 25.0 mg/kg/injection, schedule: Q04DX003 (ip), vehicle: water) is 88 % of control and 89 % of control and 100 % of control; the T/C (endpoint: mean survival time, dose: 50.0 mg/kg/injection, schedule: Q04DX003 (ip), vehicle: water) was 95 % of control and 97 % of control; the T/C (endpoint: mean survival time, dose: 100.0 mg/kg/injection, schedule: Q04DX003 (ip), vehicle: water) was 90 % of control and 91 % of control and 95 % of control; the T/C (endpoint: mean survival time, dose: 200.0 mg/kg/injection, schedule: Q04DX003 (ip), vehicle: water) is 95 % of control and 93 % of control.
Consider `COc1ccc(OC)c(NC(=O)Nc2ccc(NC(C)=O)cc2)c1`, for which the T/C was 91 % of control (endpoint: mean survival time, dose: 100.0 mg/kg/injection, schedule: Q01DX009 (ip), vehicle: saline with Tween-80); 95 % of control (endpoint: mean survival time, dose: 200.0 mg/kg/injection, schedule: Q01DX009 (ip), vehicle: saline with Tween-80); 91 % of control (endpoint: mean survival time, dose: 400.0 mg/kg/injection, schedule: Q01DX009 (ip), vehicle: saline with Tween-80).
`CC(=O)C1CCC2C3CC=C4CC(n5c(=O)cc[nH]c5=O)CCC4(C)C3CCC12C` (configuration not stated): the T/C (endpoint: mean survival time, dose: 12.5 mg/kg/injection, schedule: Q04DX003 (ip), vehicle: Klucel (hydroxypropylcellulose) (HPC)) is 97 % of control; the T/C under setting [1] is 98 % of control; the T/C under setting [2] was 101 % of control and 103 % of control; the T/C (endpoint: mean survival time, dose: 100.0 mg/kg/injection, schedule: Q04DX003 (ip), vehicle: Klucel (hydroxypropylcellulose) (HPC)) is 92 % of control and 101 % of control; the T/C (endpoint: mean survival time, dose: 200.0 mg/kg/injection, schedule: Q04DX003 (ip), vehicle: Klucel (hydroxypropylcellulose) (HPC)) was 95 % of control; the T/C (endpoint: mean survival time, dose: 400.0 mg/kg/injection, schedule: Q04DX003 (ip), vehicle: Klucel (hydroxypropylcellulose) (HPC)) is 90 % of control.
For the molecule `CNC(=O)Oc1cccc(NC(=O)OC(C)C(C)C)c1` (configuration not stated), the T/C reads like this: under setting [3], 98 % of control; under setting [4], 90 % of control; under setting [5], 96 % of control.
Take `O=C(Cl)c1ccccc1/C=C/c1ccc([N+](=O)[O-])cc1`: the T/C was 105 % of control under setting [6], 103 % of control under setting [7] and 96 % of control under setting [8].
Take `Nc1cc(Nc2ccc(Cl)cc2)c2nc(-c3ccc(Cl)cc3)c(-c3ccc(Cl)cc3)nc2n1`: the T/C reads like this: under setting [3], 100 % of control; under setting [4], 107 % of control; under setting [5], 107 % of control.
For `Cc1cc(C)c(NS(=O)(=O)c2ccccc2)c(C)n1`, the T/C runs as follows: under setting [6], 103 % of control; under setting [7], 104 % of control; under setting [8], 104 % of control.
For `CN(N)c1nc2c(=O)[nH]c(N)nc2n1C1OC(CO)C(O)C1O` (configuration not stated), the T/C is 101 % of control (endpoint: mean survival time, dose: 1.56 mg/kg/injection, schedule: Q01DX005 (ip), vehicle: water); 101 % of control (endpoint: mean survival time, dose: 3.12 mg/kg/injection, schedule: Q01DX005 (ip), vehicle: water); 101 % of control (endpoint: mean survival time, dose: 6.25 mg/kg/injection, schedule: Q01DX005 (ip), vehicle: water); 98 % of control (endpoint: mean survival time, dose: 12.5 mg/kg/injection, schedule: Q01DX005 (ip), vehicle: water); 103 % of control (endpoint: mean survival time, dose: 25.0 mg/kg/injection, schedule: Q01DX005 (ip), vehicle: water).
`O=C1C=C(Nc2cccc(C(=O)O)c2)c2ccccc2C1=O`: the T/C runs as follows: (endpoint: mean survival time, dose: 75.0 mg/kg/injection, schedule: Q01DX001 (ip), vehicle: saline) 101 % of control; (endpoint: mean survival time, dose: 300.0 mg/kg/injection, schedule: Q01DX001 (ip), vehicle: saline) 101 % of control.
On to `Cc1cc(C)c(NC(=O)/C=C/c2ccccc2)c(C)c1`, for which the T/C by setting is: (endpoint: mean survival time, dose: 100.0 mg/kg/injection, schedule: Q04DX002 (ip), vehicle: saline with Tween-80) 96 % of control; (endpoint: mean survival time, dose: 200.0 mg/kg/injection, schedule: Q04DX002 (ip), vehicle: saline with Tween-80) 89 % of control; (endpoint: mean survival time, dose: 400.0 mg/kg/injection, schedule: Q04DX002 (ip), vehicle: saline with Tween-80) 96 % of control.
